Structures can show the parent of a compound that is named as a salt.
Legend:
[1] = tested on: A375; test: Compounds cellular killing in A375; type: cell-based, human; settings: A375, 6 days, Cell Titer-Glo
Procedure: (§1) Seeding cells A375 (1E3/well) or Calu-6 (2E3/well) into 96-well plate (Greiner: 655090), 100 ul/well. Incubation at 37° C., 5% CO2, overnight.
(§2) Adding the fresh growth-medium containing the varying concentrations of compounds, 50 ul/well.
(§3) Incubation at 37° C., 5% CO2, 6 days.
(§4) The cell viability detected by Cell Titer-Glo (Promega, G7573). Add 70 µL/well of CellTiter-Glo® Reagent in each well.
(§5) Allow the plates to incubate at room temperature for 10 minutes to stabilize luminescent signal.
(§6) Analyze with Microplate Reader.
(§7) Seeding cells A375 ([…] or Calu-6 (2E3/well) into 96-well plate (Greiner: 655090), 100 ul/well. Incubation at 37° C., […], overnight.

[2] = tested on: Calu-6; test: Compounds cellular killing in Calu-6; type: cell-based, human; settings: Calu-6, 6 days, Cell Titer-Glo
Procedure: as §1, §2, §3, §4, §5, §6, §7

| Compound | EC50 ([1]; Homo sapiens, A-375, […]) | Emax ([1]; Homo sapiens, A-375, […]) | EC50 ([2]; Homo sapiens, Calu-6, […]) | Emax ([2]; Homo sapiens, Calu-6, […]) | EC50 ([1]; Homo sapiens, A-375) | Emax ([1]; Homo sapiens, A-375) | EC50 ([2]; Homo sapiens) | EC50 [1] | EC50 [2] |
| --- | --- | --- | --- | --- | --- | --- | --- | --- | --- |
| CC[C@@]1(O)C(=O)OCc2c1cc1n(c2=O)Cc2c-1nc1cc(F)c(C)c3c1c2C(C(=O)N1CCC1CO)CC3 (stereo partly drawn) [Example 2-47, (9S)-9-ethyl-5-fluoro-9-hydroxy-1-(2-(hydroxymethyl)azetidine-1-carbonyl)-4-methyl-1,2,3,9,12,15-hexahydro-10H,13H-benzo[de]pyrano[3′,4′:6,7]indolizino[1,2-b]quinoline-10,13-dione] | 6.7 nM | 99.7% | 1.8 nM | 99.5% | – | – | – | – | – |
| CC[C@@]1(O)C(=O)OCc2c1cc1n(c2=O)Cc2c-1nc1cc(Cl)c(C)c3c1c2[C@@H](NC(=O)C(C)(C)CO)CC3 [Example 2-8, N-((1S,9S)-5-chloro-9-ethyl-9-hydroxy-4-methyl-10,13-dioxo-2,3,9,10,13,15-hexahydro-1H,12H-benzo[de]pyrano[3′,4′:6,7]indolizino[1,2-b]quinolin-1-yl)-3-hydroxy-2,2-dimethylpropanamide] | 1.2 nM | 98.6% | 0.4 nM | 99.3% | – | – | – | – | – |
| CC[C@@]1(O)C(=O)OCc2c1cc1n(c2=O)Cc2c-1nc1cc(F)c(C)c3c1c2[C@@H](N(C)CCO)CC3 [Example 2-5, (1S,9S)-9-ethyl-5-fluoro-9-hydroxy-1-((2-hydroxyethyl)(methyl)amino)-4-methyl-1,2,3,9,12,15-hexahydro-10H,13H-benzo[de]pyrano[3′,4′:6,7]indolizino[1,2-b]quinoline-10,13-dione] | – | – | – | 98.9% | 0.9 nM | 98.8% | 0.3 nM | – | – |
| CC[C@@]1(O)C(=O)OCc2c1cc1n(c2=O)Cc2c-1nc1cc(F)c(C)c3c1c2[C@@H](NC(=S)NCCO)CC3 [Example 2-25, 1-((1S,9S)-9-ethyl-5-fluoro-9-hydroxy-4-methyl-10,13-dioxo-2,3,9,10,13,15-hexahydro-1H,12H-benzo[de]pyrano[3′,4′:6,7]indolizino[1,2-b]quinolin-1-yl)-3-(2-hydroxyethyl)thiourea] | 0.9 nM | 99.9% | 0.1 nM | 98.2% | – | – | – | – | – |
| CC[C@@]1(O)C(=O)OCc2c1cc1n(c2=O)Cc2c-1nc1cc(F)c(C)c3c1c2[C@@H](NC(=O)C[C@H](O)CC#N)CC3 [Example 2-20, (R)-4-cyano-N-((1S,9S)-9-ethyl-5-fluoro-9-hydroxy-4-methyl-10,13-dioxo-2,3,9,10,13,15-hexahydro-1H,12H-benzo[de]pyrano[3′,4′:6,7]indolizino[1,2-b]quinolin-1-yl)-3-hydroxybutanamide] | 18.5 nM | 98% | 5.6 nM | 98.1% | – | – | – | – | – |
| CC[C@@]1(O)C(=O)OCc2c1cc1n(c2=O)Cc2c-1nc1cc(Cl)c(C)c3c1c2[C@@H](NC(=O)C(C)(F)CO)CC3 (stereo partly drawn) [Example 2-58, N-((1S,9S)-5-chloro-9-ethyl-9-hydroxy-4-methyl-10,13-dioxo-2,3,9,10,13,15-hexahydro-1H,12H-benzo[de]pyrano[3′,4′:6,7]indolizino[1,2-b]quinolin-1-yl)-2-fluoro-3-hydroxy-2-methylpropanamide] | 2.9 nM | 99.9% | 0.9 nM | 98.8% | – | – | – | – | – |
| CC[C@@]1(O)C(=O)OCc2c1cc1n(c2=O)Cc2c-1nc1cc(F)c(C)c3c1c2[C@@H](NC(=O)NCCO)CC3 [Example 2-26, 1-((1S,9S)-9-ethyl-5-fluoro-9-hydroxy-4-methyl-10,13-dioxo-2,3,9,10,13,15-hexahydro-1H,12H-benzo[de]pyrano[3′,4′:6,7]indolizino[1,2-b]quinolin-1-yl)-3-(2-hydroxyethyl)urea] | – | – | – | 98.4% | 18.6 nM | 97.7% | 5.1 nM | – | – |
| CC[C@@]1(O)C(=O)OCc2c1cc1n(c2=O)Cc2c-1nc1cc(F)c(C)c3c1c2[C@@H](NC(=O)C1CCCC1O)CC3 (single isomer, unassigned) [Example 2-9] | – | 100% | – | 98.6% | – | – | – | 1.9 nM | 0.7 nM |
| CC[C@@]1(O)C(=O)OCc2c1cc1n(c2=O)Cc2c-1nc1cc(F)c(OC)c3c1c2[C@@H](N)CC3 [Example 1-1, (1S,9S)-1-amino-9-ethyl-5-fluoro-9-hydroxy-4-methoxy-1,2,3,9,12,15-hexahydro-10H,13H-benzo[de]pyrano[3′,4′:6,7]indolizino[1,2-b]quinoline-10,13-dione methanesulfonate] | 2 nM | 100% | 0.9 nM | 99.6% | – | – | – | – | – |
| CC[C@@]1(O)C(=O)OCc2c1cc1n(c2=O)Cc2c-1nc1cc(F)c(C)c3c1c2C(CCCCO)CC3 (stereo partly drawn) [Example 2-48, (9S)-9-ethyl-5-fluoro-9-hydroxy-1-(4-hydroxybutyl)-4-methyl-1,2,3,9,12,15-hexahydro-10H,13H-benzo[de]pyrano[3′,4′:6,7]indolizino[1,2-b]quinoline-10,13-dione] | 0.4 nM | 99.5% | 0.1 nM | 98.7% | – | – | – | – | – |
| CC[C@@]1(O)C(=O)OCc2c1cc1n(c2=O)Cc2c-1nc1cc(F)c(C)c3c1c2C(N1CCC1CO)CC3 (single isomer, unassigned) [Example 2-57] | – | 100% | – | 99.3% | – | – | – | 1.9 nM | 0.7 nM |
| CC[C@@]1(O)C(=O)OCc2c1cc1n(c2=O)Cc2c-1nc1cc(F)c(C)c3c1c2[C@@H](N1CCCC1CO)CC3 (single isomer, unassigned) [Example 2-49] | – | 99.9% | 0.2 nM | 99.1% | – | – | – | 0.7 nM | – |
| CC[C@@]1(O)C(=O)OCc2c1cc1n(c2=O)Cc2c-1nc1cc3c(c4c1c2[C@@H](NC(=O)C(C)(C)CO)CC4)OCO3 [Example 2-35, N-((1S,10S)-10-ethyl-10-hydroxy-11,14-dioxo-2,3,10,11,14,16-hexahydro-1H,13H-benzo[de][1,3]dioxolo[4,5-g]pyrano[3′,4′:6,7]indolizino[1,2-b]quinolin-1-yl)-3-hydroxy-2,2-dimethylpropanamide] | 1.6 nM | 100% | 0.2 nM | 98.6% | – | – | – | – | – |
| CC[C@@]1(O)C(=O)OCc2c1cc1n(c2=O)Cc2c-1nc1cc(F)c(O)c3c1c2[C@@H](N)CC3 [Example 1-3, (1S,9S)-1-amino-9-ethyl-5-fluoro-4,9-dihydroxy-1,2,3,9,12,15-hexahydro-10H,13H-benzo[de]pyrano[3′,4′:6,7]indolizino[1,2-b]quinoline-10,13-dione methanesulfonate] | 130 nM | 98.4% | 38.5 nM | 98.8% | – | – | – | – | – |
| CC[C@@]1(O)C(=O)OCc2c1cc1n(c2=O)Cc2c-1nc1cc(OC)cc3c1c2[C@@H](NC(=O)CO)CC3 [Example 2-28, N-((1S,9S)-9-ethyl-9-hydroxy-5-methoxy-10,13-dioxo-2,3,9,10,13,15-hexahydro-1H,12H-benzo[de]pyrano[3′,4′:6,7]indolizino[1,2-b]quinolin-1-yl)-2-hydroxyacetamide] | 13.8 nM | 98.8% | 7.4 nM | 98.7% | – | – | – | – | – |
| CC[C@@]1(O)C(=O)OCc2c1cc1n(c2=O)Cc2c-1nc1cc(F)c(C)c3c1c2C(CCCN)CC3 (stereo partly drawn) [Example 2-42, (9S)-1-(3-aminopropyl)-9-ethyl-5-fluoro-9-hydroxy-4-methyl-1,2,3,9,12,15-hexahydro-10H,13H-benzo[de]pyrano[3′,4′:6,7]indolizino[1,2-b]quinoline-10,13-dione formate] | 20.7 nM | 99.6% | 2.8 nM | 99.2% | – | – | – | – | – |
| CC[C@@]1(O)C(=O)OCc2c1cc1n(c2=O)Cc2c-1nc1cc(F)c(C)c3c1c2C(CCCO)CC3 (stereo partly drawn) [Example 2-14, (9S)-9-ethyl-5-fluoro-9-hydroxy-1-(3-hydroxypropyl)-4-methyl-1,2,3,9,12,15-hexahydro-10H,13H-benzo[de]pyrano[3′,4′:6,7]indolizino[1,2-b]quinoline-10,13-dione] | – | – | – | 99% | 0.3 nM | 100% | 0.1 nM | – | – |
| CC[C@@]1(O)C(=O)OCc2c1cc1n(c2=O)Cc2c-1nc1ccc(F)c3c1c2[C@@H](N)CC3 [Example 1-12, (1S,9S)-1-amino-9-ethyl-4-fluoro-9-hydroxy-1,2,3,9,12,15-hexahydro-10H,13H-benzo[de]pyrano[3′,4′:6,7]indolizino[1,2-b]quinoline-10,13-dione] | 5.5 nM | 99.8% | 2.1 nM | 99.5% | – | – | – | – | – |
| CC[C@@]1(O)C(=O)OCc2c1cc1n(c2=O)Cc2c-1nc1cc(O)cc3c1c2C(NC(C)=O)CC3 (stereo partly drawn) [Example 1-18, N-((9S)-9-ethyl-5,9-dihydroxy-10,13-dioxo-2,3,9,10,13,15-hexahydro-1H,12H-benzo[de]pyrano[3′,4′:6,7]indolizino[1,2-b]quinolin-1-yl)acetamide] | 5.3 nM | 99.9% | 3.1 nM | 99.5% | – | – | – | – | – |
| CC[C@@]1(O)C(=O)OCc2c1cc1n(c2=O)Cc2c-1nc1cc(Cl)cc3c1c2[C@H](NC(=O)CO)CC3 [Example 2-13, N-((1R,9S)-5-chloro-9-ethyl-9-hydroxy-10,13-dioxo-2,3,9,10,13,15-hexahydro-1H,12H-benzo[de]pyrano[3′,4′:6,7]indolizino[1,2-b]quinolin-1-yl)-2-hydroxyacetamide] | 7.9 nM | 99.6% | 5.8 nM | 98.4% | – | – | – | – | – |
